Where a SMILES comes first, the peptide text is derived from it.
Legend:
[1] = biological target: Mu-type opioid receptor (Rattus norvegicus, UniProt P33535); test: Inhibition of [3H]naloxone binding to rat Opioid receptor mu
[2] = biological target: Delta-type opioid receptor (Rattus norvegicus, UniProt P33533); test: Inhibition of [3H][Ile5,6]-deltorphin I binding to rat Opioid receptor delta
[3] = Antagonist activity of compound against TAPP-induced electrically evoked contractions of guinea pig ileum; type: functional, Cavia porcellus
[4] = Ratio of antagonist activity against TAPP-induced contractions of guinea pig ileum to that of DPDPE-induced contractions of mouse vas deferens; type: functional, Cavia porcellus
[5] = species on record: Mus musculus; test: Antagonist activity of compound against DPDPE-induced electrically evoked contractions of mouse vas deferens; type: functional
[6] = species on record: Mus musculus; test: Atagonist activity of compound against DPDPE-induced electrically evoked contractions of mouse vas deferens; type: functional

Mu-type opioid receptor, sequence (P33535 whole entry): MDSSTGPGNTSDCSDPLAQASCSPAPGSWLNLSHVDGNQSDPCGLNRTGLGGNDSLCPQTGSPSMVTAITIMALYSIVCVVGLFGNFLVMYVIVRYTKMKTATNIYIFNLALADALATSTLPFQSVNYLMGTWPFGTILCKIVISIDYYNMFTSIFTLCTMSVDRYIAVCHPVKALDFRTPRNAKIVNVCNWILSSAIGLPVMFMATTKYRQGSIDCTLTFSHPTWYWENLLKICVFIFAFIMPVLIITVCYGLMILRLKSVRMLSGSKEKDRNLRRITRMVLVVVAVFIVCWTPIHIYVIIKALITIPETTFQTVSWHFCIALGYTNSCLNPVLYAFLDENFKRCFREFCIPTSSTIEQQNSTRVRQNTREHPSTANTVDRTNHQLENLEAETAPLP
Delta-type opioid receptor, sequence (P33533 whole entry): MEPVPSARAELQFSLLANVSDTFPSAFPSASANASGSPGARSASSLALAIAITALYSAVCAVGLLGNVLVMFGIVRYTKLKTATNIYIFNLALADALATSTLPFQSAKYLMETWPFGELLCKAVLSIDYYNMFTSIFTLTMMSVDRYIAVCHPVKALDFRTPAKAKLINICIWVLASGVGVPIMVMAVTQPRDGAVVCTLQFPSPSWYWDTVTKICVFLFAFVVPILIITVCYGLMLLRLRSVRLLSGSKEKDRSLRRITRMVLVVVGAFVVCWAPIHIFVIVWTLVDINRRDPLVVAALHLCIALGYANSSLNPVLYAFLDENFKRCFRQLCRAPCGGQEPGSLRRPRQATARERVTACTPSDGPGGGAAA

Compound	Ki [1]	Ki [2]	Ke [3]	Ratio [4]	Ke [5]	Ke [6]
Cc1cc(O)cc(C)c1C[C@@H](N)CN1Cc2ccccc2C[C@H](NC(=O)Cc2ccccc2)C1=O	15.1 nM	684 nM	207 nM	1.666	185 nM	–
Cc1cc(O)cc(C)c1C[C@H](N)CN1Cc2ccccc2C[C@@H](NC(=O)Cc2ccccc2)C1=O	23.5 nM	1100 nM	823 nM	0.5	1590 nM	–
Cc1cc(O)cc(C)c1C[C@@H](N)CN1Cc2ccccc2C[C@@H](NC(=O)Cc2ccccc2)C1=O	41.7 nM	2900 nM	85.1 nM	0.058	1440 nM	–
Cc1cc(O)cc(C)c1C[C@H](N)CN1Cc2ccccc2C[C@H](NC(=O)Cc2ccccc2)C1=O	3.3 nM	25.8 nM	38.6 nM	0.125	318 nM	–
N[C@@H](Cc1ccc(O)cc1)C(=O)N1Cc2ccccc2C[C@H]1C(=O)N[C@@H](Cc1ccccc1)C(=O)N[C@@H](Cc1ccccc1)C(=O)O (HELM PEPTIDE1{Y.[Tic].F.F}$$$$V2.0)	–	–	–	–	–	4.8 nM

Reference: ChEMBL document CHEMBL1139518, “A new structural motif for mu-opioid antagonists” (J Med Chem, 2005)
